Data published in patent US6884772B1, “Depilatories and agents for external use” (Kao Corporation, priority 1999, dated 2005).
Where no end group is shown, it is not given here.

How the values were obtained:
[1] = test system: hair follicle organs in growth phase from a human scalp tissue; assay: Growth inhibitory effects on organ-cultured hair follicles; assay type: cell-based
Method: From a human scalp tissue, hair follicle organs in growth phase were surgically isolated under a stereomicroscope. Following a conventional procedure [Philpott M.P., et al., J. Cell Sci., 97, 463-471 (1990), the isolated hair follicles were subjected to organ culture. Described specifically, endothelin-1 was added to William's E medium which contained L-glutamine (2mM), hydrocortisone (10ng/mL), insulin ([…]) sodium selenite (10 ng/mL) and transferrin (10 μg/mL).

[2] = test system: dorsal part of a guinea pig; assay: Depilation inducing effects of endothelin (intracutaneous administration); assay type: in vivo; settings: 0.3 μg in 0.1% BSA/PBS, 50 μL/site, 10 days after the administration
Method: (§1) A solution of endothelin-1 (0.3 μg) in phosphate buffer solution (PBS), which contained 0.1% of bovine serum albumin (BSA), was intracutaneously administered (at 50 μL/site) to the dorsal part of a guinea pig.

[3] = test system: growth-phase hair follicle; assay: Structural changes of hair follicle structure (hematoxylin-eosin staining of dorsal skin); assay type: in vivo, guinea pig; settings: 0.3 μg intracutaneous
Method: as §1, with “1.1%” for “0.1%”, “pig. After that, samples were collected day after day from the administered dorsal skin, and tissue samples were prepared by hematoxylin-eosin staining.” for “pig.”

[4] = test system: dorsal parts of guinea pigs; assay: Growth-phase hair follicle inhibitory effects (number of hair shafts grown per unit area); assay type: in vivo, guinea pig; settings: 1 μg each, intracutaneous, 50 μL/site, fifth day after the administration (FIG. 1)
Method: Solutions (1 μg, each) of endothelin-1, endothelin-2 and endotherin-3 in aliquots of phosphate buffer solution (PBS), which contained 0.1% of bovine serum albumin (BSA), were intracutaneously administered (at 50 μL/site) to the dorsal parts of guinea pigs, respectively, from which hair had been cut off by a hair clipper. Three days after the administration, hair was again cut off by a hair clipper from the administered sites. Two days after the cutting, the numbers of hair shafts grown per unit area at the administered sites were counted.

## CC[C@H](C)[C@H](NC(=O)[C@H](CC(=O)O)NC(=O)[C@H](CC(C)C)NC(=O)[C@H](Cc1c[nH]cn1)NC(=O)[C@@H]1CSSC[C@H](N)C(=O)N[C@@H](CO)C(=O)N[C@H]2CSSC[C@H](NC(=O)[C@H](CCC(=O)O)NC(=O)[C@H](CCCCN)NC(=O)[C@H](CC(=O)O)NC(=O)[C@H](CCSC)NC(=O)[C@H](CC(C)C)NC(=O)[C@H](CO)NC(=O)[C@H](CO)NC2=O)C(=O)N[C@@H](C(C)C)C(=O)N[C@@H](Cc2ccc(O)cc2)C(=O)N[C@@H](Cc2ccccc2)C(=O)N1)C(=O)N[C@H](C(=O)N[C@@H](Cc1c[nH]c2ccccc12)C(=O)O)[C@@H](C)CC [Endothelin-1, endothelin-1]
[1]; 10 ng/mL, Day 1 of incubation
  Percent regression of growth-phase hair follicles: 0.0%
[1]; 10 ng/mL, Day 2 of incubation
  Percent regression of growth-phase hair follicles: 0.0%
[1]; 100 ng/mL, Day 1 of incubation
  Percent regression of growth-phase hair follicles: 0.0%
[1]; 100 ng/mL, Day 2 of incubation
  Percent regression of growth-phase hair follicles: 0.0%
[1]; day 4 of incubation and the subsequent days, compared with control group without endothelin-1 (FIG. 3)
  Grown hair follicle lengths (hair growth inhibition): significant hair growth inhibitory effects were observed
[1]; during the incubation period (FIG. 4)
  Structural change of incubated growth-phase hair follicles: structural change of the endothelin-treated, growth-phase hair follicles into those similar to resting-phase hair follicles was observed
[2]
  Hair shaft falling-off and formation of depilation spot at the administered site: hair shaft falling-off and formation of a marked depilation spot were observed
[3]; 1st day after the administration (FIG. 2)
  Hair follicle histology: regressed image of a growth-phase hair follicle was observed
[3]; 3rd day after the administration (FIG. 2)
  Hair follicle histology: image of a follicular tissue in transition phase was presented
[4]
  Number of hair shafts grown per unit area at the administered sites: significant (p<0.01) decrease in the number of hair shafts

## endothelin-2 (CSCSSWLDKECVYFCHLDIIW; ends and bridges not checked; cysteine pairing not given here; UniProt P20800 49-69, looked up) [peptide composed of 21 amino acid residues, isoform of endothelin]
[4]
  Number of hair shafts grown per unit area at the administered sites: significant (p<0.01) decrease in the number of hair shafts

## endothelin-3 (CTCFTYKDKECVYYCHLDIIW; ends and bridges not checked; cysteine pairing not given here; UniProt P14138 97-117, looked up) [endotherin-3, peptide composed of 21 amino acid residues, isoform of endothelin]
[4]
  Number of hair shafts grown per unit area at the administered sites: significant (p<0.01) decrease in the number of hair shafts
